According to ChEMBL document CHEMBL3046801, “Synthesis of 2-R1-2-(4-(2-fluoroethoxy)benzamido)acetate as potential PET imaging agents” (Med Chem Res, 2012):

Experiments:
Lung [1] = assay: Biodistribution in tumor bearing Mus musculus KM (mouse) Lung at 15 min by microPET imaging analysis; type: ADME, organism-based; conditions: in vivo, 0.25 h
Brain [2] = assay: Biodistribution in tumor bearing Mus musculus KM (mouse) brain at 60 min by microPET imaging analysis; type: ADME, organism-based; conditions: in vivo, 1 h
Muscle tissue [3] = assay: Biodistribution in tumor bearing Mus musculus KM (mouse) muscle at 5 min by microPET imaging analysis; type: ADME, organism-based; conditions: in vivo
Kidney [4] = assay: Biodistribution in tumor bearing Mus musculus KM (mouse) kidney at 15 min by microPET imaging analysis; type: ADME, organism-based; conditions: in vivo, 0.25 h
Heart [5] = assay: Biodistribution in tumor bearing Mus musculus KM (mouse) heart at 5 min by microPET imaging analysis; type: ADME, organism-based; conditions: in vivo
Liver [6] = assay: Biodistribution in tumor bearing Mus musculus KM (mouse) liver at 5 min by microPET imaging analysis; type: ADME, organism-based; conditions: in vivo
Spleen [7] = assay: Biodistribution in tumor bearing Mus musculus KM (mouse) spleen at 5 min by microPET imaging analysis; type: ADME, organism-based; conditions: in vivo
Liver [8] = assay: Biodistribution in tumor bearing Mus musculus KM (mouse) liver at 120 min by microPET imaging analysis; type: ADME, organism-based; conditions: in vivo, 2 h
Tumour [9] = assay: Biodistribution in Mus musculus KM (mouse) tumor at 120 min by microPET imaging analysis; type: ADME, organism-based, Neoplasm; conditions: in vivo, 2 h
Heart [10] = assay: Biodistribution in tumor bearing Mus musculus KM (mouse) heart at 15 min by microPET imaging analysis; type: ADME, organism-based; conditions: in vivo, 0.25 h
Spleen [11] = assay: Biodistribution in tumor bearing Mus musculus KM (mouse) spleen at 60 min by microPET imaging analysis; type: ADME, organism-based; conditions: in vivo, 1 h
Tumour [12] = assay: Biodistribution in Mus musculus KM (mouse) tumor at 5 min by microPET imaging analysis; type: ADME, organism-based, Neoplasm; conditions: in vivo
Kidney [13] = assay: Biodistribution in tumor bearing Mus musculus KM (mouse) kidney at 60 min by microPET imaging analysis; type: ADME, organism-based; conditions: in vivo, 1 h
Spleen [14] = assay: Biodistribution in tumor bearing Mus musculus KM (mouse) spleen at 120 min by microPET imaging analysis; type: ADME, organism-based; conditions: in vivo, 2 h
Muscle tissue [15] = assay: Biodistribution in tumor bearing Mus musculus KM (mouse) muscle by microPET imaging analysis; type: ADME, organism-based; conditions: in vivo, TDE = time-dependent effect
Heart [16] = assay: Biodistribution in tumor bearing Mus musculus KM (mouse) heart at 120 min by microPET imaging analysis; type: ADME, organism-based; conditions: in vivo, 2 h
Blood [17] = assay: Biodistribution in tumor bearing Mus musculus KM (mouse) blood at 60 min by microPET imaging analysis; type: ADME, organism-based; conditions: in vivo, 1 h
Muscle tissue [18] = assay: Biodistribution in tumor bearing Mus musculus KM (mouse) muscle at 120 min by microPET imaging analysis; type: ADME, organism-based; conditions: in vivo, 2 h
Spleen [19] = assay: Biodistribution in tumor bearing Mus musculus KM (mouse) spleen by microPET imaging analysis; type: ADME, organism-based; conditions: in vivo, TDE = time-dependent effect
Nucleic Acid [20] = assay: Ratio of drug uptake in tumor to muscle in Mus musculus KM (mouse) at 15 min; type: ADME, nucleic-acid assay; conditions: in vivo, 0.25 h
Liver [21] = assay: Biodistribution in tumor bearing Mus musculus KM (mouse) liver at 15 min by microPET imaging analysis; type: ADME, organism-based; conditions: in vivo, 0.25 h
Kidney [22] = assay: Biodistribution in tumor bearing Mus musculus KM (mouse) kidney by microPET imaging analysis; type: ADME, organism-based; conditions: in vivo, TDE = time-dependent effect
Liver [23] = assay: Biodistribution in tumor bearing Mus musculus KM (mouse) liver at 60 min by microPET imaging analysis; type: ADME, organism-based; conditions: in vivo, 1 h
Lung [24] = assay: Biodistribution in tumor bearing Mus musculus KM (mouse) lung by microPET imaging analysis; type: ADME, organism-based; conditions: in vivo, TDE = time-dependent effect
Blood [25] = assay: Biodistribution in tumor bearing Mus musculus KM (mouse) blood at 120 min by microPET imaging analysis; type: ADME, organism-based; conditions: in vivo, 2 h
Kidney [26] = assay: Biodistribution in tumor bearing Mus musculus KM (mouse) kidney at 5 min by microPET imaging analysis; type: ADME, organism-based; conditions: in vivo
Nucleic Acid [27] = assay: Ratio of drug uptake in tumor to muscle in Mus musculus KM (mouse) at 120 min; type: ADME; conditions: in vivo, 2 h
Kidney [28] = assay: Biodistribution in tumor bearing Mus musculus KM (mouse) kidney at 120 min by microPET imaging analysis; type: ADME, organism-based; conditions: in vivo, 2 h
Lung [29] = assay: Biodistribution in tumor bearing Mus musculus KM (mouse) Lung at 120 min by microPET imaging analysis; type: ADME, organism-based; conditions: in vivo, 2 h
Blood [30] = assay: Biodistribution in tumor bearing Mus musculus KM (mouse) blood at 30 min by microPET imaging analysis; type: ADME, organism-based; conditions: in vivo, 0.5 h
Liver [31] = assay: Biodistribution in tumor bearing Mus musculus KM (mouse) liver by microPET imaging analysis; type: ADME, organism-based; conditions: in vivo, TDE = time-dependent effect
Muscle tissue [32] = assay: Biodistribution in tumor bearing Mus musculus KM (mouse) muscle at 15 min by microPET imaging analysis; type: ADME, organism-based; conditions: in vivo, 0.25 h
Blood [33] = assay: Biodistribution in tumor bearing Mus musculus KM (mouse) blood by microPET imaging analysis; type: ADME, organism-based; conditions: in vivo, TDE = time-dependent effect
Muscle tissue [34] = assay: Biodistribution in tumor bearing Mus musculus KM (mouse) muscle at 60 min by microPET imaging analysis; type: ADME, organism-based; conditions: in vivo, 1 h
Tumour [35] = assay: Biodistribution in Mus musculus KM (mouse) tumor at 60 min by microPET imaging analysis; type: ADME, organism-based, Neoplasm; conditions: in vivo, 1 h
[36] = Octanol-PBS partition coefficient of the compound at pH 7.4 by gamma counter; type: physicochemical; conditions: read-out: log KOW
Blood [37] = assay: Biodistribution in tumor bearing Mus musculus KM (mouse) blood at 5 min by microPET imaging analysis; type: ADME, organism-based; conditions: in vivo
Spleen [38] = assay: Biodistribution in tumor bearing Mus musculus KM (mouse) spleen at 30 min by microPET imaging analysis; type: ADME, organism-based; conditions: in vivo, 0.5 h
Tumour [39] = assay: Biodistribution in Mus musculus KM (mouse) tumor at 30 min by microPET imaging analysis; type: ADME, organism-based, Neoplasm; conditions: in vivo, 0.5 h
Nucleic Acid [40] = assay: Ratio of drug uptake in tumor to muscle in Mus musculus KM (mouse) at 60 min; type: ADME, nucleic-acid assay; conditions: in vivo, 1 h
Brain [41] = assay: Biodistribution in tumor bearing Mus musculus KM (mouse) brain at 15 min by microPET imaging analysis; type: ADME, organism-based; conditions: in vivo, 0.25 h
Kidney [42] = assay: Biodistribution in tumor bearing Mus musculus KM (mouse) kidney at 30 min by microPET imaging analysis; type: ADME, organism-based; conditions: in vivo, 0.5 h
Brain [43] = assay: Biodistribution in tumor bearing Mus musculus KM (mouse) brain at 5 min by microPET imaging analysis; type: ADME, organism-based; conditions: in vivo
Heart [44] = assay: Biodistribution in tumor bearing Mus musculus KM (mouse) heart at 60 min by microPET imaging analysis; type: ADME, organism-based; conditions: in vivo, 1 h
Brain [45] = assay: Biodistribution in tumor bearing Mus musculus KM (mouse) brain at 120 min by microPET imaging analysis; type: ADME, organism-based; conditions: in vivo, 2 h
Muscle tissue [46] = assay: Biodistribution in tumor bearing Mus musculus KM (mouse) muscle at 30 min by microPET imaging analysis; type: ADME, organism-based; conditions: in vivo, 0.5 h
Blood [47] = assay: Biodistribution in tumor bearing Mus musculus KM (mouse) blood at 15 min by microPET imaging analysis; type: ADME, organism-based; conditions: in vivo, 0.25 h
Spleen [48] = assay: Biodistribution in tumor bearing Mus musculus KM (mouse) spleen at 15 min by microPET imaging analysis; type: ADME, organism-based; conditions: in vivo, 0.25 h
Heart [49] = assay: Biodistribution in tumor bearing Mus musculus KM (mouse) heart by microPET imaging analysis; type: ADME, organism-based; conditions: in vivo, TDE = time-dependent effect
Liver [50] = assay: Biodistribution in tumor bearing Mus musculus KM (mouse) liver at 30 min by microPET imaging analysis; type: ADME, organism-based; conditions: in vivo, 0.5 h
Tumour [51] = assay: Biodistribution in Mus musculus KM (mouse) tumor at 15 min by microPET imaging analysis; type: ADME, organism-based, Neoplasm; conditions: in vivo, 0.25 h
Lung [52] = assay: Biodistribution in tumor bearing Mus musculus KM (mouse) Lung at 30 min by microPET imaging analysis; type: ADME, organism-based; conditions: in vivo, 0.5 h
Brain [53] = assay: Biodistribution in tumor bearing Mus musculus KM (mouse) brain by microPET imaging analysis; type: ADME, organism-based; conditions: in vivo, TDE = time-dependent effect
Lung [54] = assay: Biodistribution in tumor bearing Mus musculus KM (mouse) Lung at 60 min by microPET imaging analysis; type: ADME, organism-based; conditions: in vivo, 1 h
Lung [55] = assay: Biodistribution in tumor bearing Mus musculus KM (mouse) Lung at 5 min by microPET imaging analysis; type: ADME, organism-based; conditions: in vivo
Nucleic Acid [56] = assay: Ratio of drug uptake in tumor to muscle in Mus musculus KM (mouse) at 30 min; type: ADME, nucleic-acid assay; conditions: in vivo, 0.5 h
Heart [57] = assay: Biodistribution in tumor bearing Mus musculus KM (mouse) heart at 30 min by microPET imaging analysis; type: ADME, organism-based; conditions: in vivo, 0.5 h
Brain [58] = assay: Biodistribution in tumor bearing Mus musculus KM (mouse) brain at 30 min by microPET imaging analysis; type: ADME, organism-based; conditions: in vivo, 0.5 h
Tumour [59] = assay: Biodistribution in tumor of Mus musculus KM (mouse) by microPET imaging analysis; type: ADME, organism-based, Neoplasm; conditions: in vivo, TDE = time-dependent effect

## O=C(O)CNC(=O)c1ccc(OCC[18F])cc1 [[18F]FEBA hydrolytic acid]
Lung [1]
  Drug uptake: 1.11 % ID/g
Brain [2]
  Drug uptake: 0.06 % ID/g
Muscle tissue [3]
  Drug uptake: 1.35 % ID/g
Kidney [4]
  Drug uptake: 5.15 % ID/g
Heart [5]
  Drug uptake: 2.24 % ID/g
Liver [6]
  Drug uptake: 2.75 % ID/g
Spleen [7]
  Drug uptake: 1.12 % ID/g
Liver [8]
  Drug uptake: 0.37 % ID/g
Tumour [9]
  Drug uptake: 0.36 % ID/g
Heart [10]
  Drug uptake: 0.75 % ID/g
Spleen [11]
  Drug uptake: 0.21 % ID/g
Tumour [12]
  Drug uptake: 1.72 % ID/g
Kidney [13]
  Drug uptake: 0.46 % ID/g
Spleen [14]
  Drug uptake: 0.2 % ID/g
Muscle tissue [15]
  Drug uptake: tde
Heart [16]
  Drug uptake: 0.25 % ID/g
Blood [17]
  Drug uptake: 0.18 % ID/g
Muscle tissue [18]
  Drug uptake: 0.14 % ID/g
Spleen [19]
  Drug uptake: tde
Nucleic Acid [20]
  Ratio: 1.09
Liver [21]
  Drug uptake: 1.08 % ID/g
Kidney [22]
  Drug uptake: tde
Liver [23]
  Drug uptake: 0.25 % ID/g
Lung [24]
  Drug uptake: tde
Blood [25]
  Drug uptake: 0.3 % ID/g
Kidney [26]
  Drug uptake: 17.9 % ID/g
Nucleic Acid [27]
  Ratio: 2.57
Kidney [28]
  Drug uptake: 0.32 % ID/g
Lung [29]
  Drug uptake: 0.2 % ID/g
Blood [30]
  Drug uptake: 0.39 % ID/g
Liver [31]
  Drug uptake: tde
Muscle tissue [32]
  Drug uptake: 0.82 % ID/g
Blood [33]
  Drug uptake: tde
Muscle tissue [34]
  Drug uptake: 0.15 % ID/g
Tumour [35]
  Drug uptake: 0.29 % ID/g
[36]
  logD: -1.55
Blood [37]
  Drug uptake: 4.57 % ID/g
Spleen [38]
  Drug uptake: 0.22 % ID/g
Tumour [39]
  Drug uptake: 0.47 % ID/g
Nucleic Acid [40]
  Ratio: 1.93
Brain [41]
  Drug uptake: 0.23 % ID/g
Kidney [42]
  Drug uptake: 1.17 % ID/g
Brain [43]
  Drug uptake: 0.34 % ID/g
Heart [44]
  Drug uptake: 0.22 % ID/g
Brain [45]
  Drug uptake: 0.13 % ID/g
Muscle tissue [46]
  Drug uptake: 0.47 % ID/g
Blood [47]
  Drug uptake: 1.45 % ID/g
Spleen [48]
  Drug uptake: 0.48 % ID/g
Heart [49]
  Drug uptake: tde
Liver [50]
  Drug uptake: 0.38 % ID/g
Tumour [51]
  Drug uptake: 0.89 % ID/g
Lung [52]
  Drug uptake: 0.37 % ID/g
Brain [53]
  Drug uptake: tde
Lung [54]
  Drug uptake: 0.18 % ID/g
Lung [55]
  Drug uptake: 3.37 % ID/g
Nucleic Acid [56]
  Ratio: 0.99
Heart [57]
  Drug uptake: 0.28 % ID/g
Brain [58]
  Drug uptake: 0.12 % ID/g
Tumour [59]
  Drug uptake: tde
